According to patent US10577349B2 (Sanford Burnham Prebys Medical Discovery Institute, priority 2015, dated 2020):
pIC50: −log10 of the molar value.

How the values were obtained:
[1] = target: HCV cap-dependent translation; test: In vitro translation assay, FF-HCV-Ren construct, cap-dependent (FF luciferase); assay type: biochemical, rabbit reticulocyte lysates
From the text: (§1) The bicistronic dual-reporter constructs that contain the firefly luciferase (FF) sequence, followed by the (encephalomyocarditis virus) EmCV and Hepatitis C virus (HCV) IRES, respectively, and the Renilla reniformis (Ren) luciferase sequence, has been previously described (Bordeleau Me., et al. Functional characterization of IRESes by an inhibitor of the RNA helicase eIF4A. Nature chemical biology. 2006; 2:213-20). For measurement of translation from the FF-EmCV-Ren and FF-HCV-Ren constructs, rabbit reticulocyte lysates (RRL) (Life Technologies, Carlsbad, Calif., USA) and the Dual-Glo (Promega, Madison, Wis., USA) read-outs were chosen. Two μl rabbit reticulocyte lysates mixed with Translation Mix 20× (-Met) and Translation Mix 20× (-Leu) in a ratio of 1:1 were pre-incubated with test compounds in 1536-well plates for 1 h at room temperature. Then, translation was started by adding 0.1 μg RNA per well and incubated for 2 h at 30° C. After a short chill phase, 2.5 μl Dual-Glo reagent 1 was added to each well and incubated for 10 min before reading the FF luciferase activity with the ViewLux uHTS Microplate Imager (Perkin Elmer, Waltham, Mass., USA). Directly after, 2.5 μl Dual-Glo reagent 2 was dispensed to each well and incubated at room temperature for 10 min before reading the Ren luciferase activity on the ViewLux. To exclude the possibility that test compounds interfere with any of the luciferase activities, a counter assay was performed in which the compounds were added after the completion of the in vitro translation.

[2] = target: EmCV Cap-dependent translation; test: In vitro translation assay, FF-EmCV-Ren construct, cap-dependent (FF luciferase); assay type: biochemical, rabbit reticulocyte lysates
From the text: as §1

[3] = target: HCV cap-independent translation; test: In vitro translation assay, FF-HCV-Ren construct, cap-independent (Ren luciferase); assay type: biochemical, rabbit reticulocyte lysates
From the text: as §1

[4] = target: EmCV Cap-independent translation; test: In vitro translation assay, FF-EmCV-Ren construct, cap-independent (Ren luciferase); assay type: biochemical, rabbit reticulocyte lysates
From the text: as §1

A375 = test: 48 h Cytotoxicity A375; assay type: cell-based; conditions: Homo sapiens, A-375

Structure (SMILES)	pIC50 [1]	pIC50 [2]	pIC50 [3]	pIC50 [4]	pIC50 (A375)
Cc1ccc(/C=C/C(=O)c2c(-c3ccccc3)c3cc(Cl)ccc3[nH]c2=O)nc1 [Compound 48, 6-Chloro-3-[3-(5-methyl-pyridin-2-yl)-acryloyl]-4-phenyl-1H-quinolin-2-one]	5.00 to 5.70	5.00 to 5.70	4.70 to 5.00	5.00 to 5.70	5.00 to 5.70
Cc1ccc2[nH]c(/C=C/C(=O)c3c(-c4ccccc4)c4cc(Cl)cnc4[nH]c3=O)nc2c1 [Compound 114, (E)-6-chloro-3-(3-(5-methyl-1H-benzo[d]imidazol-2-yl)acryloyl)-4-phenyl-1,8-naphthyridin-2(1H)-one]	< 4.70	5.00 to 5.70	4.70 to 5.00	4.70 to 5.00	5.00 to 5.70
O=C(/C=C/c1nc2ccccc2[nH]1)c1c(-c2ccccc2)c2cc([N+](=O)[O-])ccc2[nH]c1=O [Compound 13, 3-(3-1H-Benzoimidazol-2-yl-acryloyl)-6-nitro-4-phenyl-1H-quinolin-2-one]	4.70 to 5.00	5.00 to 5.70	5.00 to 5.70	5.00 to 5.70	5.00 to 5.70
O=C(/C=C/c1cncc(F)c1)c1c(-c2cncc(Cl)c2)c2cc(Cl)ccc2[nH]c1=O [Compound 101, 3-[(2E)-3-(5-fluoro(3-pyridyl))prop-2-enoyl]-6-chloro-4-(5-chloro(3-pyridyl))hydroquinolin-2-one]	4.70 to 5.00	5.00 to 5.70	4.70 to 5.00	4.70 to 5.00	5.00 to 5.70
O=C(/C=C/c1cccnc1)c1c(-c2ccccc2)c2cc(Cl)ccc2[nH]c1=O [Compound 32, 6-Chloro-4-phenyl-3-(3-pyridin-3-yl-acryloyl)-1H-quinolin-2-one]	5.00 to 5.70	5.00 to 5.70	5.00 to 5.70	5.00 to 5.70	> 5.70
O=C(/C=C/c1nc2ccccc2[nH]1)c1c(-c2ccccc2)c2cc(C(F)(F)F)ccc2[nH]c1=O [Compound 19, 3-(3-1H-Benzoimidazol-2-yl-acryloyl)-4-phenyl-6-trifluoromethyl-1H-quinolin-2-one]	4.70 to 5.00	5.00 to 5.70	4.70 to 5.00	5.00 to 5.70	5.00 to 5.70
N#Cc1cncc(/C=C/C(=O)c2c(-c3ccccc3)c3cc(Cl)ccc3[nH]c2=O)c1 [Compound 72, 5-[(1E)-3-(6-chloro-2-oxo-4-phenyl(3-hydroquinolyl))-3-oxoprop-1-enyl]pyridine-3-carbonitrile]	5.00 to 5.70	5.00 to 5.70	5.00 to 5.70	5.00 to 5.70	> 5.70
O=C(/C=C/c1cc(Br)cs1)c1c(-c2ccccc2)c2cc(Cl)ccc2[nH]c1=O [Compound 46, 3-[3-(4-Bromo-thiophen-2-yl)-acryloyl]-6-chloro-4-phenyl-1H-quinolin-2-one]	5.00 to 5.70	5.00 to 5.70	5.00 to 5.70	5.00 to 5.70	5.00 to 5.70
Cc1ccnc(-c2c(C(=O)/C=C/c3cncc(F)c3)c(=O)[nH]c3ccc(Cl)cc23)c1 [Compound 93, 3-[(2E)-3-(5-fluoro(3-pyridyl))prop-2-enoyl]-6-chloro-4-(4-methyl(2-pyridyl))hydroquinolin-2-one]	< 4.70	< 4.70	< 4.70	4.70 to 5.00	> 5.70
O=C(/C=C/c1cncc(F)c1)c1c(-c2ccc(F)cc2)c2cc(Cl)ccc2[nH]c1=O [Compound 77, 3-[(2E)-3-(5-fluoro(3-pyridyl))prop-2-enoyl]-6-chloro-4-(4-fluorophenyl)hydroquinolin-2-one]	5.00 to 5.70	5.00 to 5.70	5.00 to 5.70	5.00 to 5.70	> 5.70
CN(C)c1ccc(-c2c(C(=O)/C=C/c3ccccn3)c(=O)[nH]c3ccc(Cl)cc23)cc1 [Compound 108, 3-((2E)-3-(2-pyridyl)prop-2-enoyl)-4-[4-(dimethylamino)phenyl]-6-chlorohydroquinolin-2-one]	4.70 to 5.00	5.00 to 5.70	5.00 to 5.70	5.00 to 5.70	5.00 to 5.70
O=C(/C=C/c1ccccn1)c1c(-c2ccc(Br)cc2)c2cc(Cl)ccc2[nH]c1=O [Compound 92, 3-((2E)-3-(2-pyridyl)prop-2-enoyl)-4-(4-bromophenyl)-6-chlorohydroquinolin-2-one]	5.00 to 5.70	5.00 to 5.70	5.00 to 5.70	5.00 to 5.70	> 5.70
COc1ccc2[nH]c(=O)c(C(=O)/C=C/c3nc4ccccc4[nH]3)c(-c3ccccc3)c2c1 [Compound 21, 3-(3-1H-Benzoimidazol-2-yl-acryloyl)-6-methoxy-4-phenyl-1H-quinolin-2-one]	< 4.70	4.70 to 5.00	4.70 to 5.00	4.70 to 5.00	5.00 to 5.70
O=C(/C=C/c1cncc(F)c1)c1c(-c2ccc(C(F)(F)F)cc2)c2cc(Cl)ccc2[nH]c1=O [Compound 83, 3-[(2E)-3-(5-fluoro(3-pyridyl))prop-2-enoyl]-6-chloro-4-[4-(trifluoromethyl)phenyl]hydroquinolin-2-one]	5.00 to 5.70	5.00 to 5.70	5.00 to 5.70	5.00 to 5.70	5.00 to 5.70
Cc1ccc(/C=C/C(=O)c2c(-c3ccccc3)c3cc(Cl)ccc3[nH]c2=O)cc1 [Compound 34, 6-Chloro-4-phenyl-3-(3-p-tolyl-acryloyl)-1H-quinolin-2-one]	5.00 to 5.70	4.70 to 5.00	5.00 to 5.70	5.00 to 5.70	5.00 to 5.70
O=C(/C=C/c1ccc(F)cc1C(F)(F)F)c1c(-c2ccccc2)c2cc(Cl)ccc2[nH]c1=O [Compound 49, 6-Chloro-3-[3-(4-fluoro-2-trifluoromethyl-phenyl)-acryloyl]-4-phenyl-1H-quinolin-2-one]	5.00 to 5.70	5.00 to 5.70	5.00 to 5.70	5.00 to 5.70	> 5.70
O=C(/C=C/c1ccc(Cl)cc1)c1c(-c2ccccc2)c2cc(Cl)ccc2[nH]c1=O [Compound 33, 6-Chloro-3-[3-(4-chloro-phenyl)-acryloyl]-4-phenyl-1H-quinolin-2-one]	5.00 to 5.70	5.00 to 5.70	5.00 to 5.70	5.00 to 5.70	5.00 to 5.70
O=C(/C=C/c1nc2ccccc2[nH]1)c1c(-c2ccccc2)c2cccnc2[nH]c1=O [Compound 25, 3-(3-1H-Benzoimidazol-2-yl-acryloyl)-4-phenyl-1H-[1,8]naphthyridin-2-one]	4.70 to 5.00	4.70 to 5.00	< 4.70	4.70 to 5.00	4.70 to 5.00
O=C(/C=C/c1ccc(F)cc1F)c1c(-c2ccccc2)c2cc(Cl)ccc2[nH]c1=O [Compound 41, 6-Chloro-3-[3-(2,4-difluoro-phenyl)-acryloyl]-4-phenyl-1H-quinolin-2-one]	5.00 to 5.70	5.00 to 5.70	5.00 to 5.70	5.00 to 5.70	> 5.70
O=C(/C=C/c1ccc(F)c(F)c1)c1c(-c2ccccc2)c2cc(Cl)ccc2[nH]c1=O [Compound 40, 6-Chloro-3-[3-(3,4-difluoro-phenyl)-acryloyl]-4-phenyl-1H-quinolin-2-one]	5.00 to 5.70	5.00 to 5.70	5.00 to 5.70	5.00 to 5.70	> 5.70
O=C(/C=C/c1ccncc1)c1c(-c2ccccc2)c2cc(Cl)ccc2[nH]c1=O [Compound 28, 6-Chloro-4-phenyl-3-(3-pyridin-4-yl-acryloyl)-1H-quinolin-2-one]	5.00 to 5.70	5.00 to 5.70	5.00 to 5.70	5.00 to 5.70	> 5.70
COCCn1c(/C=C/C(=O)c2c(-c3ccccc3)c3cc(Cl)ccc3[nH]c2=O)nc2ccccc21 [Compound 57, 6-Chloro-3-{3-[1-(2-methoxy-ethyl)-1H-benzoimidazol-2-yl]-acryloyl}-4-phenyl-1H-quinolin-2-one]	5.00 to 5.70	5.00 to 5.70	5.00 to 5.70	5.00 to 5.70	5.00 to 5.70
COc1ccc2[nH]c(/C=C/C(=O)c3c(-c4ccccc4)c4cc(Cl)ccc4[nH]c3=O)nc2c1 [Compound 65, 6-Chloro-3-[3-(5-methoxy-1H-benzoimidazol-2-yl)-acryloyl]-4-phenyl-1H-quinolin-2-one]	5.00 to 5.70	5.00 to 5.70	5.00 to 5.70	5.00 to 5.70	> 5.70
O=C(/C=C/c1ccccn1)c1c(-c2ccc(Cl)cc2)c2cc(Cl)ccc2[nH]c1=O [Compound 82, 3-((2E)-3-(2-pyridyl)prop-2-enoyl)-6-chloro-4-(4-chlorophenyl)hydroquinolin-2-one]	5.00 to 5.70	5.00 to 5.70	5.00 to 5.70	5.00 to 5.70	5.00 to 5.70
Cn1c(/C=C/C(=O)c2c(-c3ccccc3)c3cc(Cl)ccc3[nH]c2=O)cc2ccccc21 [Compound 29, 6-Chloro-3-[3-(1-methyl-1H-indol-2-yl)-acryloyl]-4-phenyl-1H-quinolin-2-one]	4.70 to 5.00	< 4.70	< 4.70	< 4.70	> 5.70
